Data: ChEMBL document CHEMBL5042471, “Development and Application of Subtype-Selective Fluorescent Antagonists for the Study of the Human Adenosine A1 Receptor in Living Cells” (J Med Chem, 2021)

Key:
Adenosine receptor A3 [1] = target: T1, Adenosine receptor A3 (Homo sapiens, UniProt P0DMS8); test: Antagonist activity at N-terminal NLuc tagged human A3 adenosine receptor; assay type: functional
T1 sequence (P0DMS8 whole entry): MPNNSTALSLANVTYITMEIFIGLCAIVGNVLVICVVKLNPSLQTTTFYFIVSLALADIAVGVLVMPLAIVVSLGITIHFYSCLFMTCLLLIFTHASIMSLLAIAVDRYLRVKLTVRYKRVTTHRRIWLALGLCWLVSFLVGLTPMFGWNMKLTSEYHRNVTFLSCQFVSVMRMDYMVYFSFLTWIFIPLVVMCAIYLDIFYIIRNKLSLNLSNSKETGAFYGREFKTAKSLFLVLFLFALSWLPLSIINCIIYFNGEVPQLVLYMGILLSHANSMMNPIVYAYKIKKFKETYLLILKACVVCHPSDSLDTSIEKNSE

Adenosine receptor A1 = target: T2, Adenosine receptor A1 (Homo sapiens, UniProt P30542); test: Binding affinity to N-terminal NLuc tagged human A1 adenosine receptor expressed in Flp-In-CHO cells by competitive binding assay; assay type: cell-based
T2 sequence (P30542 whole entry): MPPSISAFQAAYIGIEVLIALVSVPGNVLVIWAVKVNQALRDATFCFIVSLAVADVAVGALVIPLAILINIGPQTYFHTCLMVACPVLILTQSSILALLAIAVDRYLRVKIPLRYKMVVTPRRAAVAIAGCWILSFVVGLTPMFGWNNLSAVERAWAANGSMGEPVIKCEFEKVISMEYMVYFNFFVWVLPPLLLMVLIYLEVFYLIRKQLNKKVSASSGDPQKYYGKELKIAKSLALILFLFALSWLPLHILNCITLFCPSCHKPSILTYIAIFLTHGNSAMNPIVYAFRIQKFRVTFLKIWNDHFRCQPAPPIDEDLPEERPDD

Adenosine receptor A3 [2] = target: T1, Adenosine receptor A3; test: Agonist activity at A3 adenosine receptor (unknown origin); assay type: functional
Adenosine receptor A3 [3] = target: T1, Adenosine receptor A3; test: Agonist activity at human A3 adenosine receptor expressed in Flp-In-CHO cells assessed as calcium influx by competitive binding assay; assay type: functional, cell-based

`CCCn1c(=O)c2[nH]c(-c3ccc(OCC(=O)NCCNC(=O)CCCCNC(=O)COc4ccc(/C=C/C5=[N+]6C(=Cc7ccc(-c8cccs8)n7[B-]6(F)F)C=C5)cc4)cc3)nc2n(CCC)c1=O` was tested. Which Kd (Adenosine receptor A3 [1]) did it give?
The Kd was 30.9 nM.

And the Ki (Adenosine receptor A1)?
Its Ki is 9.33 nM.

Which EC50 (Adenosine receptor A3 [2]) does the source give for `O=C(CCCCCNC(=O)COc1ccc(/C=C/C2=[N+]3C(=Cc4ccc(-c5cccs5)n4[B-]3(F)F)C=C2)cc1)NCCCCNc1ncnc2c1ncn2[C@@H]1O[C@H](CO)[C@@H](O)[C@H]1O` here?
Its EC50 is 50.1 nM.

And the EC50 (Adenosine receptor A3 [3])?
Its EC50 is 1260 nM.
